Measured values reported in publication PMC8224775, “Five Tetramic Acid Derivatives Isolated from the Iranian Fungus Colpoma quercinum CCTU A372” (Biomolecules, 2021).
≈ marks a conversion by molar mass, not a printed value. Where two headings read alike, the source gives them in different places.

Tests used:
Assay in all cases: Antimicrobial serial dilution assay (MIC)
Format in all cases: cell-based
[1] = test system: Escherichia coli; settings: serial dilution 67 to 0.5 µg/mL, overnight
Procedure: (§1) Antimicrobial activity was determined by our established protocol, according to Becker et al.. In general, all of the pure compounds were dissolved in MeOH with a concentration of 1 mg/mL. Assessment of the antimicrobial activity was determined using the serial dilution assay method to calculate the minimum inhibitory concentration (MIC). In this method, the compounds were diluted in a range between 67 and 0.5 µg/mL in 96 well-plate and incubated with the test organism overnight. The next day, growth of the test organisms was visually observed, and MIC was determined in the lowest concentration where a clear zone (no growth of test organism) was observed. In our attempt for novel anti-infective compounds, an established standard protocol using various organisms representing a broad spectrum of pathogens of clinical interest, as well as sensitive indicator strains, was used (bacteria: Bacillus subtilis DSM 10, Staphylococcus aureus DSM 346, Acinetobacter baumanii DSM 30008, Chromobacterium violaceum DSM 30191, Escherichia coli DSM 1116 and Pseudomonas aeruginosa PA14; mycobacteria: Mycobacterium smegmatis ATCC 700084 and fungi: Candida albicans DSM 1665, Schizosaccharomyces pombe DSM 70572, Mucor hiemalis DSM 2656, Wickerhamomyces anomala DSM 6766 and Rhodotorula glutinis DSM 10134). Methanol as a solvent to dissolve the pure compounds was used as the negative control. Oxytetracycline, ciprofloxacin, gentamycin, and kanamycin were used as positive controls against bacteria, whereas nystatin was used against fungi. A detailed experimental procedure can be found in the SI.
(§2) Protocol: Antimicrobial Activity Assay
(§3) The assay was conducted as a minimum inhibitory concentration (MIC) assay in 96-well round- bottom microtiter plates using the parameters summarized in Table S1 and as already described in [S1]. Stocks of the test organisms were generated by growing the organisms overnight in 50 mL shaking flasks filled with 25 mL of the growth medium at 140r p m ( media and temperatures see Table S1). If the organisms were well grown the next day, which was checked by the occurrence of an optical density (OD) […] of the suspension (OD600 nm for bacteria, OD548 nm for fungi and M. smegmatis), aliquots of these were stored in 1.5 mL reaction tubes in a freezer at −80 °C for up to 12 months. Upon use, aliquots were unthawed and the OD of the suspension measured and adjusted by diluting with the respective growth medium. OD600 nm was adjusted to 0.01 and OD548 nm to 0.1. Subsequently, 150 μ L of the adj usted suspensions were added to all wells of a 96-well microtiter plate (one test organism per plate). In row A, additional 130 μ L of suspensions plus 20 μ L of the test compounds (1 mg/mL) and the controls (one compound/column) were added. MeOH was used as negative controls, while different positive controls (references) were used for the test organisms (see Table S1). Then, starting from row A, 150 μ L of t he suspension were transferred to the next row, the contents thoroughly mixed, and 150 μ L transferred to the following row. The remaining 150 μ L after row H were discarded. […]
(§4) of the test compounds, ranging from 66.7 μg/mL in row A to 0.52 μ g/mL in row H. The microtiter plates were then incubated overnight on a microplate shaker at 800 rpm at 30 or 37 °C (see Table S1) and were visually evaluated the next day. The MIC is defined as the lowest concentration where no growth of the test organism (clear zone) was observed. A lower MIC thus corresponds to a higher antimicrobial activity of the test compound.
Table S1: MIC assay experiment parameters test organism strain No growth incubation positive control […]
Escherichia coli DSM1116 MHB1 37 oxytetracyclin 1.0mg/ mL […]
(§5) Candidaa lbicans DSM1665 MYC3 30 nystatin 1.0mg/ mL
(§6) Schizosaccharomyces DSM70572 MYC3 30 nystatin 1.0mg/ mL
(§7) Mucor hiemalis DSM2656 MYC3 30 nystatin 1.0mg/ mL
(§8) Wickerhamomyces DSM6766 MYC3 30 nystatin 1.0mg/ mL
(§9) Rhodotorula glutinis DSM10134 MYC3 30 nystatin 1.0mg/ mL […]

[2] = test system: Bacillus subtilis DSM 10; settings: overnight
Procedure: as §1, §2, §3, §4
Table S1: MIC assay experiment parameters test organism strain No growth incubation positive control
Bacillus subtilis DSM10 MHB1 30 oxytetracyclin 1.0mg/ mL […]
as §5, §6, §7, §8, §9

[3] = test system: Staphylococcus aureus DSM 346; settings: serial dilution 67 to 0.5 µg/mL, overnight
Procedure: as §1, §2, §3
as §4, with “A lower MIC thus corresponds to a higher antimicrobial activity of the test compound.” left out

[4] = serial dilution 67 to 0.5 µg/mL

CC(=O)OC(C(=O)O)C(C)C1C(C)=CC2CC(C)CCC2C1(C)C(O)=C1C(=O)C(C)N(C)C1=O (centres unmarked) [compound 1, Colposetin A]
MIC [1]: n.i | MIC [2, 4]: n.i | MIC [3]: n.i

CCC(C(=O)O)C1C(C)=CC2CC(C)CCC2C1(C)C(O)=C1C(=O)C(C)N(C)C1=O (centres unmarked) [compound 2, Colposetin B]
MIC [1]: n.i | MIC ([2]; DSM10, serial dilution 67 to 0.5 µg/mL, read-out: MIC): 67 µg/mL (≈ 160 µM)

CC1=CC2CC(C)CCC2C2(C)C(=O)OC(C(=O)O)C(C)C12 (centres unmarked) [compound 3, Colposetin C]
MIC [1]: n.i | MIC [2, 4]: n.i | MIC [3]: n.i

CC(C=CCC(C)CCC=C(C)C(=O)C1=C(O)C(C)N(C)C1=O)=CC(C)C(O)C(=O)O (centres unmarked) [compound 4, Colpomenoic acid A]
MIC [1]: n.i | MIC [2, 4]: n.i | MIC [3]: n.i

CC(C=CCC(C)C=CC=C(C)C(=O)C1=C(O)C(C)N(C)C1=O)=CC(C)C(O)C(=O)O (centres unmarked) [compound 5, Colpomenoic acid B]
MIC [1]: n.i | MIC [2, 4]: n.i | MIC [3]: n.i
